Data on 22 molecules can be found in patent publication US20250188030A1, “Biphenyl and Phenylpyridine Compounds” (Pfizer Inc., priority 2023, published 2025).

Assay [1] deals with KAT2B (Homo sapiens (Human), UniProt Q92831). Nature of the assay: KAT2B acetyltransferase biochemical assay (RapidFire mass spectrometry, AcCoA to CoA).
Assay [2] concerns the target KAT2A (Homo sapiens (Human), UniProt Q92830). In words: KAT2A acetyltransferase biochemical assay (RapidFire mass spectrometry, AcCoA to CoA).
Assay [3] deals with H3K9AC (HT1080 cells). Nature of the assay: H3K9AC Sandwich ELISA Assay in HT1080 cells (KAT2A primary cell-based screening assay). Details: species or system Human. Summed up: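 Acetylated H3K9 quantified by luminescent sandwich ELISA (total H3 capture, H3K9ac detection) on HCl lysates of HT1080 cells. Cells had 24 h compound exposure at 37 °C, top concentration 10 µM, 10-point 3-fold series, 0.1% DMSO; IC50 from four-parameter fitting.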

Assay [4] relates to MM.1S cells. Nature of the assay: MM1.S 10 Day Proliferation Assay (CellTiter-Glo). It is filed as cell-based, Human. Summed up: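 MM.1S cells, 500/well in ultra-low-attachment plates, were pre-incubated 16 h, then exposed to a 10-point 1:3 dilution series (top 10 μM final, 0.1% DMSO) for 10 days at 37 °C, with compound-containing medium refreshed at day 5. Viability was read by CellTiter-Glo luminescence; IC50 came from four-parameter fit.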

Setting [5] is: read-out: KAT2B Ki at 1 μM AcCoA, 1 μM AcCoA, 5 μM H3 1-21 peptide, 0.5 nM KAT2B, 90-minute reaction.
Where [6] appears, read: read-out: KAT2A Ki at 1 μM AcCoA, 5 μM H3 1-21 peptide, 0.5 nM KAT2A, 90-minute reaction.
The mark [7] stands for this setting: Homo sapiens, HT-1080, H3K9AC sandwich ELISA.
Where [8] appears, read: KAT2A Ki at 1 μM AcCoA, 5 μM H3 1-21 peptide, 0.5 nM KAT2A, 90-minute reaction.

In general, Ki refers to the dissociation constant of the complex between target and ligand, obtained from inhibition or displacement. By IC50 is commonly meant the midpoint of a concentration-inhibition curve.

Where two headings read alike, the source gives them in different places.

Sequence of KAT2B (Q92831 2-832): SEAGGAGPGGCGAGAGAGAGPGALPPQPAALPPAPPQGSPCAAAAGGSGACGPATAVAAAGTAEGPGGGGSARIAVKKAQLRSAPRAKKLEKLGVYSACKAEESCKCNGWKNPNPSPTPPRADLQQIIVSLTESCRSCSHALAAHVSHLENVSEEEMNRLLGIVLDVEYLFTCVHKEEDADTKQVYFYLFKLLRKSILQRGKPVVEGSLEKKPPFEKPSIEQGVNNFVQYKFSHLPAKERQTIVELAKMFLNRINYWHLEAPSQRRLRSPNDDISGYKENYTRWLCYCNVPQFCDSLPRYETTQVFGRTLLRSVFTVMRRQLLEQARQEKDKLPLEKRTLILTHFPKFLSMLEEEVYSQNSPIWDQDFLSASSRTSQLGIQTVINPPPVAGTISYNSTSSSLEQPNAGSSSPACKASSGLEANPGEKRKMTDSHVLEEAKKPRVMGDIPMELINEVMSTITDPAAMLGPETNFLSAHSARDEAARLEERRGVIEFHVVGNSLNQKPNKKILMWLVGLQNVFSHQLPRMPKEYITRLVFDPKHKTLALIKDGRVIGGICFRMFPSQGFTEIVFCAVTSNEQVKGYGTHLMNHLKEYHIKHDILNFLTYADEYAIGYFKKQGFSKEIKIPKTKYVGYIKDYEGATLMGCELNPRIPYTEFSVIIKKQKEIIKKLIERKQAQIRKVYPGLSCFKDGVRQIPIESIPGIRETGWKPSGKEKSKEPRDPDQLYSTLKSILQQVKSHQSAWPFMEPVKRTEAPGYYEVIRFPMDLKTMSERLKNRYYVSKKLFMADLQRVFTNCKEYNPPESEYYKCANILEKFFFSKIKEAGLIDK
Sequence of KAT2A (Q92830 whole entry): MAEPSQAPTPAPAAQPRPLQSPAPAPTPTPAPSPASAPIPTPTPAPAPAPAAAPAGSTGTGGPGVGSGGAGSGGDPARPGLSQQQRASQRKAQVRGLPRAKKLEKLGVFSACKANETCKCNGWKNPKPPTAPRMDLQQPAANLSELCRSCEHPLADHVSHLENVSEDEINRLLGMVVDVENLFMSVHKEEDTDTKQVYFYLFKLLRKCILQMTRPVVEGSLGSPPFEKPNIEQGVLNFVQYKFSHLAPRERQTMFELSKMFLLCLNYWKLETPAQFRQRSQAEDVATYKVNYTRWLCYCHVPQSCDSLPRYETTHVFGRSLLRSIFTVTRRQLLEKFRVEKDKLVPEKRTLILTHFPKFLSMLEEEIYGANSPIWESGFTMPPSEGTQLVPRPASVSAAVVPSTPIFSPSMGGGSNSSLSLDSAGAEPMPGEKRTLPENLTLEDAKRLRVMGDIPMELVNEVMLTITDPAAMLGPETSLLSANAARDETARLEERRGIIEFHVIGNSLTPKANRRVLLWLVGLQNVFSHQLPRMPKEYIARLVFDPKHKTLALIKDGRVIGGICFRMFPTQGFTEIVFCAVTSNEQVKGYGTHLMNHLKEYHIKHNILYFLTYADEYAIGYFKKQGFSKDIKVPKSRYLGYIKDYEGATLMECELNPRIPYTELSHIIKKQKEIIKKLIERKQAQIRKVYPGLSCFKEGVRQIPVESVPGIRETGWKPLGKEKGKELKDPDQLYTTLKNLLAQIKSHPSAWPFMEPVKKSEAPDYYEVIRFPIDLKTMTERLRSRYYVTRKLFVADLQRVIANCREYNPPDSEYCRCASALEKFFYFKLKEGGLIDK

For the molecule `CN1CC(C)(C)C[C@H]1C(=O)N[C@H]1C[C@H](Oc2ccc(CC(=O)O)cc2-c2cccc(F)c2C2CCC2)C[C@H]1O` [Example K4, [2′-cyclobutyl-3′-fluoro-6-({(1S,3R,4S)-3-hydroxy-4-[(1,4,4-trimethyl-L-prolyl)amino]cyclopentyl}oxy)[1,1′-biphenyl]-3-yl]acetic acid], the results for the Ki in assay [1] (setting [5]) and in assay [2] (setting [6]) were 0.94 nM and 0.7 nM, respectively. The IC50 in assay [3] (setting [7]) turned out to be 4.56 nM; in assay [4] (Homo sapiens, MM1.S, 240 h), 45.6 nM.
Take `CCc1c(F)cccc1-c1cc(C(C)(C)C(=O)NS(C)(=O)=O)ccc1O[C@@H]1CC[C@@H](NC(=O)[C@@]2(F)CNC3(CCCC3)C2)C1` (single isomer, unassigned) [Example C27]: the results for the Ki in assay [1] (setting [5]) and in assay [2] (setting [6]) were 0.53 nM and 0.16 nM, respectively. Further, the half-maximal inhibitory concentration (IC50) was found to be 2.62 nM in assay [3] (setting [7]) and 12.8 nM in assay [4] (Homo sapiens, MM1.S, 240 h).
`CN1CC(C)(C)C[C@H]1C(=O)N[C@@H]1CC[C@@H](Oc2ccc(-c3cn(C)nc3C(=O)O)cc2-c2cccc(F)c2C2CCC2)C1` [Example J1, 4-[2′-cyclobutyl-3′-fIuoro-6-({(1R,3R)-3-[(1,4,4-trimethyl -L-prolyl)amino]cyclopentyl}oxy)[1,1′-biphenyl]-3-yl]-1-methyl-1H-pyrazole-3-carboxylic acid]: the Ki in assay [1] came out at 0.74 nM; in assay [2] (setting [8]), 0.41 nM. Also, the IC50 stood at 14.9 nM in assay [3] (setting [7]) and 8.43 nM in assay [4] (Homo sapiens, MM1.S, 240 h).
Turning to `Cn1cc(-c2ccc(O[C@@H]3CC[C@@H](NC(=O)[C@]4(F)CNC5(CCC5)C4)C3)c(-c3cccc(F)c3C3CCC3)c2)c(C(=O)O)n1` (single isomer, unassigned) [Example J10], the Ki in assay [1] (setting [5]) amounted to 0.49 nM; in assay [2] (setting [6]), 0.27 nM. The IC50 in assay [3] (H3K9AC sandwich ELISA) amounted to 19.5 nM; in assay [4] (Homo sapiens, MM1.S, 240 h), 52 nM.
On to `CCc1c(F)cccc1-c1cc(C(C)(C)C(=O)NS(=O)(=O)CC)ccc1O[C@@H]1CC[C@@H](NC(=O)[C@@]2(F)CNC3(CCCC3)C2)C1` (single isomer, unassigned) [Example C25], for which the inhibition constant Ki in assay [1] (setting [5]) came out at 0.55 nM; in assay [2] (setting [6]), 0.14 nM. The IC50 in assay [3] (H3K9AC sandwich ELISA) amounted to 1.71 nM; in assay [4] it was 9.29 nM.
For the molecule `CC1(C)C[C@](F)(C(=O)N[C@@H]2CC[C@@H](Oc3ccc(C(C)(C)C(=O)NS(C)(=O)=O)cc3-c3cccc(F)c3C3CCC3)C2)CN1` (single isomer, unassigned) [Example C6], the results for the Ki in assay [1] (setting [5]) and in assay [2] (setting [6]) were 14.8 nM and 2.75 nM, respectively. Further, the IC50 in assay [3] (setting [7]) is 89.7 nM.
Take `CCS(=O)(=O)NC(=O)C(C)(C)c1ccc(O[C@@H]2CC[C@@H](NC(=O)[C@@]3(F)CNC(C)(C)C3)C2)c(-c2cccc(F)c2C2CCC2)c1` (single isomer, unassigned) [Example B13]: the Ki was determined as 0.35 nM in assay [1] (setting [5]) and 0.14 nM in assay [2] (setting [6]). Moreover, the concentration for half-maximal inhibition (IC50) in assay [3] (H3K9AC sandwich ELISA) amounted to 1.96 nM; in assay [4], 38.8 nM.
With `CN1CC(C)(C)C[C@H]1C(=O)N[C@@H]1CC[C@@H](Oc2cccc(CC(=O)O)c2-c2ccccc2C2CCC2)C1` (atropisomer, axis not shown) [Example H6, [(1ψ)-2′-cyclobutyl-6-({(1R,3R)-3-[(1,4,4-trimethyl-L-prolyl)amino]cyclopentyl}oxy)[1,1′-biphenyl]-2-yl]acetic acid], in assay [1] (setting [5]), the Ki worked out at 63.6 nM. Also, the IC50 in assay [3] (H3K9AC sandwich ELISA) was 84.2 nM; in assay [4] (Homo sapiens, MM1.S, 240 h), 679 nM.
Take `CC1(C)C[C@H](C(=O)N[C@@H]2CC[C@@H](Oc3cccc(C(=O)O)c3-c3cccc(F)c3C3CCC3)C2)CN1` (atropisomer, axis not shown) [Example H9, (1ψ)-2′-cyclobutyl-6-{[(1R,3R)-3-{[(3ξ)-5,5-dimethylpyrrolidine-3-carbonyl]amino}cyclopentyl]oxy}-3′-fluoro[1,1′-biphenyl]-2-carboxylic acid]: the figures for the Ki in assay [1] (setting [5]) and in assay [2] (setting [6]) were 115 nM and 33 nM, respectively. The molecule further registered an IC50 in assay [3] (setting [7]) of 90 nM.
For `CCn1cc(-c2ccc(O[C@@H]3CC[C@@H](NC(=O)[C@@]4(F)CNC5(CCC5)C4)C3)c(-c3cccc(F)c3C3CCC3)c2)c(C(=O)O)n1` (single isomer, unassigned) [Example J13], in that order: 0.62 nM, 0.14 nM and 10.2 nM.
For the molecule `CC(C)S(=O)(=O)NC(=O)Cc1ccc(O[C@@H]2CC[C@@H](NC(=O)[C@]3(F)CNC4(CCC4)C3)C2)c(-c2cccc(F)c2C2CCC2)c1` (single isomer, unassigned) [Example C40], the Ki in assay [1] was determined as 0.07 nM; in assay [2] (setting [8]) it was 0.02 nM. In addition, the 50% inhibitory concentration (IC50) is 1.5 nM in assay [3] (H3K9AC sandwich ELISA) and 3.5 nM in assay [4] (Homo sapiens, MM1.S, 240 h).
For the molecule `CC1(C)CNC[C@](F)(C(=O)N[C@@H]2CC[C@@H](Oc3ccc(CC(=O)O)cc3-c3cccc(F)c3C3CCC3)C2)C1` (single isomer, unassigned) [Example A23], the Ki was found to be 2.85 nM in assay [1] (setting [5]) and 0.57 nM in assay [2] (setting [6]). Also, the IC50 is 6.36 nM in assay [3] (setting [7]) and 60 nM in assay [4] (Homo sapiens, MM1.S, 240 h).
For `CCc1c(F)cccc1-c1cc(C(C)(C)C(=O)NS(=O)(=O)CC)ccc1O[C@@H]1CC[C@@H](NC(=O)[C@@]2(F)CNC3(CCCC3)C2)C1` (single isomer, unassigned) [Example C24], in that order: 0.22 nM, 0.34 nM, 2.77 nM and 9.83 nM.
For `CC1(C)CNCC(F)(C(=O)N[C@@H]2CC[C@@H](Oc3ccc(C(C)(C)C(=O)NS(=O)(=O)C4CC4)cc3-c3cccc(F)c3C3CCC3)C2)C1` (single isomer, unassigned) [Example B28], in that order: 0.19 nM, 0.14 nM, 2.7 nM and 5 nM.
As to `CC(C)c1ccccc1-c1cc(C(=O)O)ccc1O[C@@H]1CC[C@@H](NC(=O)[C@@H]2CC(C)(C)CN2C)C1` [Example D5, 2′-(propan-2-yl)-6-({(1R,3R)-3-[(1,4,4-trimethyl-L-prolyl)amino]cyclopentyl}oxy)[1,1′-biphenyl]-3-carboxylic acid], the inhibitory constant (Ki) in assay [1] (setting [5]) came out at 58.8 nM; in assay [2] (setting [6]), 12.8 nM. In addition, in assay [3] (setting [7]), the IC50 turned out to be 30.4 nM.
For the molecule `CN1CC2(CCOCC2)C[C@H]1C(=O)N[C@@H]1CC[C@@H](Oc2ccc(C(=O)O)cc2-c2ccccc2C2CCC2)C1` (single isomer, unassigned) [Example D2], the Ki in assay [1] was 46.8 nM; in assay [2] (setting [8]), 70.3 nM. In assay [3] (setting [7]), inhibition was half-maximal at 30.6 nM (IC50).
Take `C[C@H](C(=O)O)c1nn(C)cc1-c1ccc(O[C@@H]2CC[C@@H](NC(=O)[C@]3(F)CNC4(CCC4)C3)C2)c(-c2cccc(F)c2C2CCC2)c1` (single isomer, unassigned) [Example J5]: in assay [2] (setting [6]), the Ki worked out at 0.19 nM. Moreover, the IC50 in assay [3] (setting [7]) was 2.76 nM; in assay [4] (Homo sapiens, MM1.S, 240 h) it was 21.5 nM.
For `CCN(C)S(=O)(=O)NC(=O)c1cccc(O[C@@H]2CC[C@@H](NC(=O)[C@@H]3CC(C)(C)CN3C)C2)c1-c1cccc(F)c1C1CCC1` (atropisomer, axis not shown) [Example I14, N-[(1R,3R)-3-{[(1ψ)-2′-cyclobutyl-6-{[ethyl(methyl)sulfamoyl]carbamoyl}-3′-fluoro[1,1′-biphenyl]-2-yl]oxy}cyclopentyl]-1,4,4-trimethyl-L-prolinamide], in that order: 33.9 nM, 18.1 nM and 69.3 nM.
For `CN1CC(C)(C)C[C@H]1C(=O)N[C@@H]1CC[C@@H](Oc2ccc(C(C)(C)C(=O)NS(C)(=O)=O)cc2-c2ccccc2CC(F)(F)F)C1` [Example E6, N-[(1R,3R)-3-{[5-{1-[(methanesulfonyl)amino]-2-methyl-1-oxopropan-2-yl}-2′-(2,2,2-trifluoroethyl)[1,1′-biphenyl]-2-yl]oxy}cyclopentyl]-1,4,4-trimethyl-L-prolinamide], in that order: 53 nM, 99 nM and 203 nM.
Take `CC(C)(C(=O)O)c1ccc(O[C@@H]2CC[C@@H](NC(=O)[C@@]3(F)CNCC4(CCC4)C3)C2)c(-c2cccc(F)c2C2CCC2)c1` (single isomer, unassigned) [Example A27]: in assay [2] (setting [6]), the Ki is 0.16 nM. Further, the IC50 in assay [3] (H3K9AC sandwich ELISA) turned out to be 7.6 nM; in assay [4] (Homo sapiens, MM1.S, 240 h) it was 26.3 nM.
Regarding `Cc1cc(NS(C)(=O)=O)n(-c2ccc(O[C@@H]3CC[C@@H](NC(=O)[C@@]4(F)CNC5(CCC5)C4)C3)c(-c3cccc(F)c3C3CCC3)c2)n1` (single isomer, unassigned) [Example L3], in assay [2] (setting [6]), the Ki is 0.21 nM. Further, the IC50 in assay [3] (setting [7]) was determined as 6.9 nM; in assay [4] (Homo sapiens, MM1.S, 240 h) it was 43.4 nM.
In the case of `CC(C)S(=O)(=O)NC(=O)C(C)(C)c1ccc(O[C@@H]2CC[C@@H](NC(=O)[C@@]3(F)CNCC(C)(C)C3)C2)c(-c2cccc(F)c2C2CCC2)c1` (single isomer, unassigned) [Example B30], the inhibition constant (Ki) in assay [2] (setting [6]) was 0.09 nM. The IC50 turned out to be 1.7 nM in assay [3] (setting [7]) and 4.2 nM in assay [4] (Homo sapiens, MM1.S, 240 h).
